Test results as given in patent US20120225093A1, “Abrogating HIV-1 Infection via Drug-Induced Reactivation of Apoptosis” (UNIVERSITY OF MEDICINE AND DENTISTRY OF NEW JERSEY, priority 2010, published 2012).

Columns and labels:
HIV-1 = test: Acute PBMC infection model: p24 and HIV-1 RNA in supernatant; format: cell-based; conditions: for p24 in culture (virus production, p24 capture assay): HIV-infected PBMCs co-cultured with uninfected PBMCs, CPX 30 μM, DEF 250 μM, P2 30 μM added at 48 hr, followed to 144 hr; for HIV-1 RNA production / p24 production: isolate #990,135, compound added at 48 hr, 30 or 60 μM
Description: Using an institutional review board (IRB)-approved protocol, PBMCs were isolated from the blood of healthy donors and stimulated overnight with phytohemagglutinin (PHA) and human IL-2. Stimulated cells were pelleted and resuspended for culture at a final concentration of 0.5×10^6 cells/ml in PHA-free RPMI 1640 medium containing 10% fetal calf serum (v/v), 100 units/ml penicillin G, 100 μg/ml streptomycin, 2 mM […], and 3.5 ng/ml human IL-2 (Medium B). Cultures were incubated at 37° C., 5% CO2, and 95% humidity.
Using an IRB-approved protocol, two donors were recruited to generate clinical viral isolates. One (#990,135) was highly immunocompromised despite on-going combination antiretroviral therapy (cART) (CD4 count <5%; HIV RNA in plasma at log10 5.5 copies/ml). The second (#990,010) was moderately to severely immunocompromised on cART (CD4 count 14-26%; HIV RNA in plasma at log10 3.8-5.0 copies/ml). For infection, 5×10^6 uninfected stimulated PBMCs were co-cultured with 10×10^6 PBMCs from one of the HIV-infected donors in Medium B. On day 3, half of the supernatant was removed and replenished with an equal volume of fresh Medium B. On day 7, the medium was likewise replenished and 7.5×10^6 stimulated uninfected PBMCs were added. On days 10, 17, and 24, half of the supernatant was replenished. On days 14, 21, and 28, stimulated uninfected PBMCs were added. Cells were harvested when p24 reached 250 pg/ml, cryopreserved in freezing medium (90% fetal calf serum, 10% dimethyl sulfoxide), and stored in liquid nitrogen as infected PBMC stock. Cell-free supernatants were stored at −80° C.
Uninfected PBMCs were co-incubated with infected PBMC stock in 24-well microplates at 2 ml/well Medium B, at a 10:1 ratio of uninfected-to-infected cells, and a total cell number of 1×10^6. Cultures were maintained and assayed for 6 consecutive days. […] Leaving the cell layer undisturbed, half the medium in each well was replenished every day, with concurrent adjustment of compound concentration. On each day during the 6-day experiments, a set of wells was harvested: the cells were processed for determination of viability and apoptosis, and the cell-free supernatants were stored at −80° C. for p24 and viral RNA measurements. Experiments were performed at least in duplicate and repeated at least twice.
p24 core antigen in the supernatant was quantified by ELISA (Retrotek HIV-1 p24™; ZeptoMetrix Corp.; Buffalo, N.Y.). HIV-1 RNA copy number in the supernatant was determined with a PCR-based and FDA-approved assay (Amplicor HIV-1 Monitor™; Roche Diagnostics Corp.; Indianapolis, Ind.). IFN-γ and IL-10 in the supernatant were determined by cytometric bead array (Human Th1/Th2 Cytokine Kit II™; BD Biosciences Pharmingen, San Jose, Calif.).
To examine the effect of CPX and DEF on HIV-1 propagation, uninfected PBMCs from healthy donors were co-cultured with HIV-infected PBMCs and virus production was monitored by the p24 capture assay. In untreated cultures, p24 was first detected at 96 hr and increased up to 144 hr (FIG. 1C; Control). […] The profound inhibition is due, at least in part, to activation of apoptosis at later stages of infection. These concentrations are within the clinically relevant range and sufficient to block DOHH activity and eIF5A modification (see below).
To examine the antiretroviral action of CPX in a clinic-derived model, PBMCs infected with patient isolates of HIV-1 were used. Naïve freshly isolated PBMCs from a single donor were infected by co-cultivation with HIV-infected, HLA-nonidentical PBMCs at an initial uninfected/infected cell ratio of 10:1. CPX was added and cells were maintained and monitored for six days. Half of each culture supernatant was replenished daily with CPX-containing or CPX-free medium as appropriate. […]

eIF5A:DOHH complex = target: T1, eIF5A:DOHH complex (Homo sapiens, UniProt Q9BU89); test: Co-immunoprecipitation of eIF5A with DOHH from 293T cell extracts; format: cell-based; conditions: for association of endogenous DOHH with FLAG-eIF5A: CPX 30 μM, P2 30 μM, DEF 250 μM, DFOX 10 μM, GC7 10 μM, 24 hr; for interaction between endogenous eIF5A and tagged DOHH: 293T transfected with FLAG-DOHH
T1 construct: Endogenous DOHH co-immunoprecipitated with FLAG-eIF5A; expressed in transfected cells; host or cells: 293T cells (DOHH endogenous, FLAG-eIF5A transfected)
T1 sequence (Q9BU89 1-302): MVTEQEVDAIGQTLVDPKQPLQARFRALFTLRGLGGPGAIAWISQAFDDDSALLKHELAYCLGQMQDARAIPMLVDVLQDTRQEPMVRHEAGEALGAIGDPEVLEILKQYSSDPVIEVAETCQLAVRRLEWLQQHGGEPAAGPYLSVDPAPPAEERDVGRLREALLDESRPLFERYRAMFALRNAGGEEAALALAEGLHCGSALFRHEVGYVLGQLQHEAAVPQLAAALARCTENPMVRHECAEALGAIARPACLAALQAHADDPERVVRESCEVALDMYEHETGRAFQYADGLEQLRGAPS
Description: Immunoprecipitation and immunoblotting experiments were carried out as described previously in Hoque et al. Mol Cell Biol 2003, 23:1688-1702.
eIF5A forms tight complexes with its modifying enzymes. Unmodified eIF5A (lysine-50) immunoprecipitates with DHS and deoxyhypusyl-eIF5A interacts with DOHH in vitro. It was discovered that the deoxyhypusyl-eIF5A:DOHH complex formed in vivo can be detected by immunoprecipitation from cell extracts. Taking advantage of this finding, the effects of the drugs on the enzyme-substrate interaction were tested. FLAG-eIF5A was expressed in 293T cells and complexes that immunoprecipitated with anti-FLAG antibody were immunoblotted and probed with antibodies against DOHH. […] As a further control, the DHS inhibitor GC7 was included in this assay. […] As expected, none of the compounds affected the immunoprecipitation of FLAG-eIF5A (FIG. 2D, middle panel) or the expression of endogenous eIF5A (FIG. 2D, bottom panel). Reciprocally, the interaction between endogenous eIF5A and tagged DOHH was inhibited by CPX and DEF (FIG. 2E, right). Similarly, the interaction of endogenous eIF5A with tagged DHS was inhibited by GC7 (FIG. 2E, left) but resistant to CPX and DEF. It is concluded that CPX and DEF, but not P2 or DFOX, target DOHH and inhibit its interaction with its substrate, deoxyhypusylelF5A.

[1] = isolate #990,010, CPX 30 μM added 12 hr after inoculation, six days

SMILES | p24 in culture (virus production, p24 capture assay) (HIV-1) | HIV-1 RNA production (HIV-1) | p24 production (HIV-1) | association of endogenous DOHH with FLAG-eIF5A (eIF5A:DOHH complex) | HIV-1 p24 (HIV-1; [1]) | extracellular HIV-1 RNA (HIV-1; [1]) | interaction between endogenous eIF5A and tagged DOHH (eIF5A:DOHH complex)
Cc1ccn(O)c(=O)c1 [Agent P2, 1-hydroxy-4-methylpyridin-2[1H]-one] | did not impede p24 production | did not curtail the accumulation of p24 or HIV-1 RNA | did not curtail the accumulation of p24 or HIV-1 RNA | neither P2 or DFOX prevented the formation of the eIF5A:DOHH complex |  |  | 
Cc1cc(C2CCCCC2)n(O)c(=O)c1 [CPX, 6-cyclohexyl-1-hydroxy-4-methylpyridin-2[1H]-one] | reduced p24 to baseline levels | inhibited the production of HIV-1 RNA | completely inhibited p24 production | largely prevented | remained undetectable | did not increase at any time over the initial infectious dose | inhibited
Cc1c(O)c(=O)ccn1C [DEF, 3-hydroxy-1,2-dimethylpyridin-4(1H)-one] | reduced p24 to baseline levels |  |  | largely prevented |  |  | inhibited
